In ChEMBL document CHEMBL4387706, “Discovery of Novel Spiroindoline Derivatives as Selective Tankyrase Inhibitors” (J Med Chem, 2019):
In brackets after ≈: the same amount, converted by molar mass. Activity calls are given as the source filed them. The rule behind the calls is not given here.

What was measured:
RKO = assay: Antiproliferative activity against human RKO cells assessed reduction in cell viability at 0.3 uM measured after 5 days by MTT assay; format: functional, cell-based
[1] = AUC (infinity) in ICR mouse at 50 mg/kg, ip; format: ADME, organism-based; set-up: dose 50 mg/kg, route intraperitoneal, time infinity; conditions: in vivo
Homo sapiens [2] = species on record: Homo sapiens; assay: Effect on hippo signaling protein in human COLO320DM cells assessed as change in CTGF expression at 0.033 to 1 uM measured after 48 hrs by RT-PCR analysis; format: cell-based
Homo sapiens [3] = species on record: Homo sapiens; assay: Effect on hippo signaling protein in human COLO320DM cells assessed as change in CYR61 expression at 0.033 to 1 uM measured after 48 hrs by RT-PCR analysis; format: cell-based
COLO 320DM = assay: Antitumor activity against human COLO320DM cells xenografted in mouse assessed as tumor growth inhibition at 300 mg/kg, ip administered twice daily for 11 days relative to control; format: functional; conditions: 264 h, read-out: TGI
[4] = target: 5-hydroxytryptamine receptor 2A (Homo sapiens) (UniProt P28223); assay: Displacement of [3H]ketanserin from full-length recombinant human 5HT2A receptor expressed in CHOK1 cells at 10 uM measured after 60 mins by scintillation counting method relative to control; format: cell-based
5-hydroxytryptamine receptor 2A (Homo sapiens), sequence (P28223 whole entry): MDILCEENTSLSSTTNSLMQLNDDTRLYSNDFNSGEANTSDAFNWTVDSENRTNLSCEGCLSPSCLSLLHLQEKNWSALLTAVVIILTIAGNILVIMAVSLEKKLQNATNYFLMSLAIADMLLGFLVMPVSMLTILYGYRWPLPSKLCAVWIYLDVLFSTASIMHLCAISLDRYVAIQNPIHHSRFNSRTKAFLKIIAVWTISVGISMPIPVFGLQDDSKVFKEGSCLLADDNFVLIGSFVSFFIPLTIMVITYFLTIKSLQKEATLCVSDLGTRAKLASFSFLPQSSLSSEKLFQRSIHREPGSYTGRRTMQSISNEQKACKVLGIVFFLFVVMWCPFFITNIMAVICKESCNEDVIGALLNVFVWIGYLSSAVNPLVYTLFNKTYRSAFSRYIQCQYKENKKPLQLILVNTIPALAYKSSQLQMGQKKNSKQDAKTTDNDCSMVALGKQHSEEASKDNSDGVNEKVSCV

[5] = target: 5-hydroxytryptamine receptor 2B (Homo sapiens) (UniProt P41595); assay: Displacement of [3H]LSD from full-length recombinant human 5HT2B receptor expressed in CHOK1 cells at 10 uM measured after 60 mins by scintillation counting method relative to control; format: cell-based
5-hydroxytryptamine receptor 2B (Homo sapiens), sequence (P41595 whole entry): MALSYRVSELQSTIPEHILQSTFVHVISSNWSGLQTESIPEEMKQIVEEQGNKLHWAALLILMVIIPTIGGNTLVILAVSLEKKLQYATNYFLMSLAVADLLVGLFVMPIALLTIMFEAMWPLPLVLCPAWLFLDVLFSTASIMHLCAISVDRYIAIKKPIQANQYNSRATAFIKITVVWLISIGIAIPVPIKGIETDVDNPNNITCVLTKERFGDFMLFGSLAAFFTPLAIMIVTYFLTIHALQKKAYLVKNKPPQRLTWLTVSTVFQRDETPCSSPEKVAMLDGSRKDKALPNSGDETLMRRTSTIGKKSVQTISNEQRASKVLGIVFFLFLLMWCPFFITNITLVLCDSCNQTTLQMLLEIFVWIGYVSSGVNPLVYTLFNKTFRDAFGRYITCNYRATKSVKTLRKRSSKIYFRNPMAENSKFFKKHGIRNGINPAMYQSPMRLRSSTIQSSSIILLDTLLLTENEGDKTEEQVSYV

[6] = target: Adenosine receptor A2a (Homo sapiens) (UniProt P29274); assay: Displacement of [3H]CGS-21680 from full-length recombinant human A2A receptor expressed in HEK293 cells at 10 uM measured after 90 mins by scintillation counting method relative to control; format: cell-based
[7] = target: Alpha-1A adrenergic receptor (Rattus norvegicus) (UniProt P43140); assay: Displacement of [3H]prazosin from alpha1A receptor in Wistar rat submaxillary gland membranes at 10 uM measured after 60 mins by scintillation counting method relative to control; format: cell membranes
Alpha-1A adrenergic receptor (Rattus norvegicus), sequence (P43140 whole entry): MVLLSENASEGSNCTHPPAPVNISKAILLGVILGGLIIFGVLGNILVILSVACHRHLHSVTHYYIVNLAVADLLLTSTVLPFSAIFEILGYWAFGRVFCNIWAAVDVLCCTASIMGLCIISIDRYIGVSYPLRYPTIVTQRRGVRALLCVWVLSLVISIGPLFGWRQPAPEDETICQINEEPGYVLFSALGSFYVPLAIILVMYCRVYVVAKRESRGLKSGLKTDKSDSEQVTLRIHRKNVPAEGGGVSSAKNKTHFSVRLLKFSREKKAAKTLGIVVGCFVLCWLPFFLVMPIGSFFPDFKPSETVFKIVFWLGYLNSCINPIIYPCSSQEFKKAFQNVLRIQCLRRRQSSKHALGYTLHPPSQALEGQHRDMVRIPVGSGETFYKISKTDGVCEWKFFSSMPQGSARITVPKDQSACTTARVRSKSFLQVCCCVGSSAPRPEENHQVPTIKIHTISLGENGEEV

[8] = target: Beta-1 adrenergic receptor (Homo sapiens) (UniProt P08588); assay: Displacement of [125I]cyanopindolol from full-length recombinant human beta1 receptor expressed in CHOK1 cells at 10 uM measured after 120 mins by scintillation counting method relative to control; format: cell-based
[9] = target: Cav1.2 (voltage-dependent L-type calcium channel subunit alpha-1C) (Rattus norvegicus, UniProt P22002); assay: Displacement of [3H]nitrendipine from Cav1.2 in Wistar rat cerebral cortex at 10 uM measured after 90 mins by scintillation counting method relative to control; conditions: probe [3H]nitrendipine
Cav1.2 (voltage-dependent L-type calcium channel subunit alpha-1C), sequence (P22002 whole entry): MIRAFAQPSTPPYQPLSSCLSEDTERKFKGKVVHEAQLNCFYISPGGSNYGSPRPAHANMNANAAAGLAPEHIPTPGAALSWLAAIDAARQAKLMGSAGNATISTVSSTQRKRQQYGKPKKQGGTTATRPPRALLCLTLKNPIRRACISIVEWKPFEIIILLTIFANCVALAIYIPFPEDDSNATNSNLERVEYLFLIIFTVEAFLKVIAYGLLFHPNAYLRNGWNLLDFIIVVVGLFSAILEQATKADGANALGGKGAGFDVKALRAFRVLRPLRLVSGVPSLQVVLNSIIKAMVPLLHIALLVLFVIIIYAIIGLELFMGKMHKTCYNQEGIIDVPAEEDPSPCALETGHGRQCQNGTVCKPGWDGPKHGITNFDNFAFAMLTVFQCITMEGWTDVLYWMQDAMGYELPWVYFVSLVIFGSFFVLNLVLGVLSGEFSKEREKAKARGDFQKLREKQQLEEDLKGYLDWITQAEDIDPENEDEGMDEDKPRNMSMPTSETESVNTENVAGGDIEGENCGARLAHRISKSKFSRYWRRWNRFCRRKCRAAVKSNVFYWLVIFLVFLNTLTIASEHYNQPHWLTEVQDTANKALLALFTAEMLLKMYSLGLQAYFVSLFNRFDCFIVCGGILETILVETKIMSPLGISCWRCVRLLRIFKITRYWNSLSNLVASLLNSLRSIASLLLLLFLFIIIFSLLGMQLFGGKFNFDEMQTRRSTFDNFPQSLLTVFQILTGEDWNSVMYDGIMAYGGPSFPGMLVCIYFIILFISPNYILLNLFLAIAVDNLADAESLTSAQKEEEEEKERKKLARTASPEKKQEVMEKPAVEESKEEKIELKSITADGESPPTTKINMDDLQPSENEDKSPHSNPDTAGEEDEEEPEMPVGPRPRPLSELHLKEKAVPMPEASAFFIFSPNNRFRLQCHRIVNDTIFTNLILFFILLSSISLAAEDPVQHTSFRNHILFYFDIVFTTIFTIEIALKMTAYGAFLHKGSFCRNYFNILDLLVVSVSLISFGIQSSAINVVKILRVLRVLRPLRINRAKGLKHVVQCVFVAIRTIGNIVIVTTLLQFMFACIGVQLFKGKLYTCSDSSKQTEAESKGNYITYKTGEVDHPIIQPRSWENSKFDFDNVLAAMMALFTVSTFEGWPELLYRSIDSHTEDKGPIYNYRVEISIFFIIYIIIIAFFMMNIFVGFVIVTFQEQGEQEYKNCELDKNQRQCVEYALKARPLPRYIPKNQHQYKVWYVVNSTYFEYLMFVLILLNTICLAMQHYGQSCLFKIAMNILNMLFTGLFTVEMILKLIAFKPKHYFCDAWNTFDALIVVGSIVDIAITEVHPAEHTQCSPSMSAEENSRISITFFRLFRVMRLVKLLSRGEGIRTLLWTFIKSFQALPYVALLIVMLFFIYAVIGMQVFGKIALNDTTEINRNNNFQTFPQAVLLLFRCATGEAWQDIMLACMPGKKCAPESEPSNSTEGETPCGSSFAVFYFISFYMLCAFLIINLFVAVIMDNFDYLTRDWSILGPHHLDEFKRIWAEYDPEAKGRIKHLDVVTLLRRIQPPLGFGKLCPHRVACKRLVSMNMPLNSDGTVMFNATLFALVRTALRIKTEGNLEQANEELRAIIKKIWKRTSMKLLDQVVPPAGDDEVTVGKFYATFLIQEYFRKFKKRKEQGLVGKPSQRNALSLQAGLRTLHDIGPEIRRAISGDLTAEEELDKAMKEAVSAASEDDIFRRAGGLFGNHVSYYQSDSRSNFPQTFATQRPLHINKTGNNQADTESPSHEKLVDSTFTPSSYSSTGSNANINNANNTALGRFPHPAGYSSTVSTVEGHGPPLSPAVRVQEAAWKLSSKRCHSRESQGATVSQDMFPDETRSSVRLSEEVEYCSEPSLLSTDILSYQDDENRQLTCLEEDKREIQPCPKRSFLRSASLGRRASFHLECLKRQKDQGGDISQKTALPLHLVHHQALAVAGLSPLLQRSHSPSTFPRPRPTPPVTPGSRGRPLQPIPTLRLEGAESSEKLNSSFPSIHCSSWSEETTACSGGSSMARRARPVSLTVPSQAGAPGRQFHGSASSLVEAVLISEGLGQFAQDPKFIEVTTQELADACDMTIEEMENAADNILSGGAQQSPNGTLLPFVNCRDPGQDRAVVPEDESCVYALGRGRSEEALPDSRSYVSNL

[10] = target: Cannabinoid receptor 2 (Homo sapiens) (UniProt P34972); assay: Displacement of [3H]WIN55212-2 from full-length recombinant human CB2 receptor expressed in human Chem1 cells at 10 uM measured after 90 mins by scintillation counting method relative to control; format: cell-based
Cannabinoid receptor 2 (Homo sapiens), sequence (P34972 whole entry): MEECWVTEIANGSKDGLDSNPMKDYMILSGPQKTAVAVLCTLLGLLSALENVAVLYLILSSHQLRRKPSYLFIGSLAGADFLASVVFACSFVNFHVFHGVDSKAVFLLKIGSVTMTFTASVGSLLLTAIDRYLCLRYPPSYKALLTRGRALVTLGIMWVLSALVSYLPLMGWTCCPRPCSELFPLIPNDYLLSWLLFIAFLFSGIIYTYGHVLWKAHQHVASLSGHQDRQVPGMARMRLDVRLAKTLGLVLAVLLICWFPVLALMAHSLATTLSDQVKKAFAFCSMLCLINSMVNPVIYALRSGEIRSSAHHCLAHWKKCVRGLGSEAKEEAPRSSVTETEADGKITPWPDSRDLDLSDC

[11] = target: Prostaglandin G/H synthase 1 (Homo sapiens) (UniProt P23219); assay: Inhibition of human recombinant COX1 expressed in baculovirus infected Sf9 cells at 10 uM using arachidonic acid as substrate preincubated for 15 mins followed by substrate addition and measured after 3 mins by ampliflu red dye-based spectrofluorimetric method relative to control
[12] = target: D(2) dopamine receptor (Homo sapiens) (UniProt P14416); assay: Displacement of [3H]spiperone from full-length recombinant human D2S receptor expressed in CHO cells at 10 uM measured after 120 mins by scintillation counting method relative to control; format: cell-based
D(2) dopamine receptor (Homo sapiens), sequence (P14416 whole entry): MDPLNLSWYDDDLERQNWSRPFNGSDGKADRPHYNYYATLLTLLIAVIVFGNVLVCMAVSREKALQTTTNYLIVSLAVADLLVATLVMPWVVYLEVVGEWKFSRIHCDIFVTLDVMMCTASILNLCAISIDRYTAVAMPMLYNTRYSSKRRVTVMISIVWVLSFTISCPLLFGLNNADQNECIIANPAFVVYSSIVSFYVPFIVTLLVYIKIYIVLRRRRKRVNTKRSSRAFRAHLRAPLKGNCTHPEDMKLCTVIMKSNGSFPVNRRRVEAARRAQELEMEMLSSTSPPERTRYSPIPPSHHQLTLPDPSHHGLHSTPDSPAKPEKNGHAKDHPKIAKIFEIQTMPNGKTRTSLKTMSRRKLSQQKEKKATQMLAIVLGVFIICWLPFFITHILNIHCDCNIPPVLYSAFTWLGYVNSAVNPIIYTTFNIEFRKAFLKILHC

[13] = target: Glutamate NMDA receptor (Rattus norvegicus) (UniProt P35439+Q00959+Q00960+Q00961+Q62645+Q8VHN2+Q9R1M7); assay: Displacement of [3H]CGP-39653 from NMDA receptor in Wistar rat cerebral cortex at 10 uM measured after 20 mins by scintillation counting method relative to control
[14] = target: Muscarinic acetylcholine receptor M3 (Homo sapiens) (UniProt P20309); assay: Displacement of [3H]N-Methylscopolamine from full-length recombinant human M3 receptor expressed in CHOK1 cells at 10 uM measured after 120 mins by scintillation counting method relative to control; format: cell-based
[15] = target: Sodium-dependent serotonin transporter (Homo sapiens) (UniProt P31645); assay: Displacement of [3H]paroxetine from full-length recombinant human SET receptor expressed in HEK293 cells at 10 uM measured after 60 mins by scintillation counting method relative to control; format: cell-based
Sodium-dependent serotonin transporter (Homo sapiens), sequence (P31645 whole entry, looked up): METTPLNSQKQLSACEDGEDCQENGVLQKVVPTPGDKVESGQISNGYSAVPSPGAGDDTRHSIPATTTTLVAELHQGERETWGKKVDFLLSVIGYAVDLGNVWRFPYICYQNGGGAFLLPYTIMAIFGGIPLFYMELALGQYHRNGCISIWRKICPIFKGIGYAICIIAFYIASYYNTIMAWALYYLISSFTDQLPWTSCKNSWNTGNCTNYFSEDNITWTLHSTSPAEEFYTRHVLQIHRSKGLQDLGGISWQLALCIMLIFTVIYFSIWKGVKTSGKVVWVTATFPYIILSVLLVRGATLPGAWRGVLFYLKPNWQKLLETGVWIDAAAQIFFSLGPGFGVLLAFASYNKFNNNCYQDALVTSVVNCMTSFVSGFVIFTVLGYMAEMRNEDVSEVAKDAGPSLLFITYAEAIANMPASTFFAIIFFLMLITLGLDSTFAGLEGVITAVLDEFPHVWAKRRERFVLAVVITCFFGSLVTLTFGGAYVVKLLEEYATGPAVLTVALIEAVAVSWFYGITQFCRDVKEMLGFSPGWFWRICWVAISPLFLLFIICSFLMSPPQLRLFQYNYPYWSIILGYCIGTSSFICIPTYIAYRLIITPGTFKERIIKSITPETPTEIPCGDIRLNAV

[16] = target: T1, Poly [ADP-ribose] polymerase tankyrase-2 (Homo sapiens, UniProt Q9H2K2)
T1 sequence (Q9H2K2 whole entry): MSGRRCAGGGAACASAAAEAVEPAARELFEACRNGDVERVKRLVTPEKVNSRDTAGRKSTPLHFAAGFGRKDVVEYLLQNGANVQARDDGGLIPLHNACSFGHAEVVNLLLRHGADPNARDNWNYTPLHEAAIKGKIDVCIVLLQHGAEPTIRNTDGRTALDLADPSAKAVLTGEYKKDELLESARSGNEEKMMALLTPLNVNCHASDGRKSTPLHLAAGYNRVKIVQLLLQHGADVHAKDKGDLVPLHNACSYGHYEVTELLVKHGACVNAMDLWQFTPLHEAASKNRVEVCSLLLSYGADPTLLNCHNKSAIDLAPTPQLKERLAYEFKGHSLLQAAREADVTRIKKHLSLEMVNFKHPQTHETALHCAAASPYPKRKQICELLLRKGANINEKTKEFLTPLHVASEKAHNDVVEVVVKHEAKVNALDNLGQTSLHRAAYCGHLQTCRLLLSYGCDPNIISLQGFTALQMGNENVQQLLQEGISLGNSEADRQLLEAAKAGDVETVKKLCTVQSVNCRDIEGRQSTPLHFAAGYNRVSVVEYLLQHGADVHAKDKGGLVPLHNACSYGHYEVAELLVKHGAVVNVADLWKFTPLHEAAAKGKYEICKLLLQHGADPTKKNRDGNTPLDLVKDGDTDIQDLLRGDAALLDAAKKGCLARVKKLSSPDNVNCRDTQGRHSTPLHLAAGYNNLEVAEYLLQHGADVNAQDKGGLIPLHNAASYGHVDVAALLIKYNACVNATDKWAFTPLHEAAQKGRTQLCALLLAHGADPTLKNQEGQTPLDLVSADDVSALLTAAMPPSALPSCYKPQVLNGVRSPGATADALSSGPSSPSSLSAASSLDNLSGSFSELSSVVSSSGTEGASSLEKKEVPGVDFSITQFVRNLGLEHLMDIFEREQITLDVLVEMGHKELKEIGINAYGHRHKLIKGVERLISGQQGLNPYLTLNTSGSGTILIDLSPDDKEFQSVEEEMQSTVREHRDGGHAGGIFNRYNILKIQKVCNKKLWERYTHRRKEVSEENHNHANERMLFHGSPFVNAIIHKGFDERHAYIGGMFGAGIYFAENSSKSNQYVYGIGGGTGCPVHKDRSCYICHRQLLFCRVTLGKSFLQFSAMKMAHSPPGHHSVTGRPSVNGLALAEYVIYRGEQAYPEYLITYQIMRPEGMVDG
Description: Inhibition of recombinant human N-terminal TEV cleavage site-fused/FLAG-poly his-tagged TNKS2 SAM-PARP domain (613 to 1166 residues) expressed in Escherichia coli assessed as reduction in auto-PARylation preincubated for 10 mins followed by biotinylated-NAD+ addition and measured after 45 mins by ELISA

physchem = conditions: phosphate buffer, pH 7.4

| IC50 [16] [nM] | solubility at 1 h, 200 µM (physchem) [µg/mL] | SMILES | Activity (RKO) | AUC(0-inf) [1] [µM·h] | Activity (Homo sapiens [2]) | Activity (Homo sapiens [3]) | inhibition in vivo at 300 mg/kg (COLO 320DM) [%] | inhibition [4] [%] | inhibition [5] [%] | inhibition [6] [%] | inhibition [7] [%] | inhibition [8] [%] | inhibition at 1.5 h, 10 µM [9] [%] | inhibition [10] [%] | inhibition [11] [%] | inhibition [12] [%] | inhibition [13] [%] | inhibition [14] [%] | inhibition [15] [%] |
| --- | --- | --- | --- | --- | --- | --- | --- | --- | --- | --- | --- | --- | --- | --- | --- | --- | --- | --- | --- |
| – | – | O=c1[nH]c(N2CCC3(CC2)CN(CCO)c2cc(F)cc(F)c23)nc2c1CCCC2 | Active | 555 | inactive | inactive | 51.9 | > 20 | > 20 | > 20 | > 20 | > 20 | > 20 | > 20 | > 20 | > 20 | > 20 | > 20 | > 20 |
| 19.4 | 10 (≈ 29.4 µM) | COc1ccccc1N1CCN(c2nc3c(c(=O)[nH]2)CCCC3)CC1 | – | – | – | – | – | – | – | – | – | – | – | – | – | – | – | – | – |
